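Following 48 hours of exposure in 96-well plates, responses at five concentrations were used to interpolate endpoints linearly. TGI marks complete inhibition of growth.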
Tests used:
Assay in all cases: NCI tumour cell line growth inhibition, 48 h
SK-MEL-2 melanoma = tested on: SK-MEL-2 melanoma
HOP-92 NSCLC = tested on: HOP-92 NSCLC
CAKI-1 renal = tested on: CAKI-1 renal
HL-60(TB) leukemia = tested on: HL-60(TB) leukemia
HOP-62 NSCLC = tested on: HOP-62 NSCLC
HS 578T breast = tested on: HS 578T breast
SNB-75 CNS = tested on: SNB-75 CNS
M14 melanoma = tested on: M14 melanoma
KM12 colon = tested on: KM12 colon
RPMI-8226 leukemia = tested on: RPMI-8226 leukemia

| SMILES | TGI (SK-MEL-2 melanoma) [µM] | TGI (HOP-92 NSCLC) [µM] | TGI (CAKI-1 renal) [µM] | TGI (HL-60(TB) leukemia) [µM] | TGI (HOP-62 NSCLC) [µM] | TGI (HS 578T breast) [µM] | TGI (SNB-75 CNS) [µM] | TGI (M14 melanoma) [µM] | TGI (KM12 colon) [µM] | TGI (RPMI-8226 leukemia) [µM] |
| --- | --- | --- | --- | --- | --- | --- | --- | --- | --- | --- |
| CCOC(=O)C1C(=O)CC(C)(O)C(C(=O)OCC)C1c1ccc(OC)cc1 (stereo not given) | > 100 | > 100 | > 100 | > 100 | > 100 | > 100 | > 100 | > 100 | > 100 | > 100 |
| Cc1ccc2nc(Cl)c(/C=N/N3C(=O)/C(=C/Cc4ccco4)N=C3c3ccccc3)cc2c1 | > 100 | 66.5 | > 100 | 55.9 | > 100 | > 86.2 | > 92.8 | 73.9 | > 93.6 | 61.8 |
| C(=N/Nc1ccccn1)/c1cccnc1 | > 100 | > 100 | > 100 | > 100 | > 100 | > 100 | > 100 | > 100 | > 100 | > 100 |
| O=C(NO)c1ccc(OCc2ccccc2)cc1 | > 100 | > 100 | 54.2 | > 100 | > 100 | > 100 | > 100 | > 100 | > 100 | > 100 |
| CC(C)(C)C1=NN=C2c3ccccc3C(=O)C21 (stereo not given) | > 100 | 63.7 | > 100 | > 100 | > 100 | 82.1 | > 100 | > 100 | > 100 | > 100 |
| CCCCN1C(=O)C[C@H]2[C@@H]3CCc4cc(OCCN5CCCC5)ccc4[C@H]3CC[C@]2(C)C1=O | 19.2 | 18.3 | 19.2 | > 23.2 | 12.2 | 39.8 | 14 | 3.92 | 21.9 | 9.53 |
| CC(=O)OCC1OC(OC2CC3C(C)(C)C(=O)CC[C@]3(C)C3CC[C@]45C[C@]4(CCC5[C@@H](C)CC(O)C(O)C(C)(C)O)[C@]23C)C(O)C(O)C1O (stereo not given in full) | 17.1 | 13.7 | 31.1 | 5.05 | 33.8 | 24.5 | 18.8 | 22.2 | 19.1 | 17.2 |
| CN(CCNC(=O)c1cc(-c2ccccc2)nc2ccccc12)CCNC(=O)c1cc(-c2ccccc2)nc2ccccc12 | 24.9 | 14.7 | > 100 | 24.9 | > 100 | 99.4 | 39.9 | 4.66 | > 40.5 | > 100 |
| COc1cc(C2c3cc4c(cc3OC(O)C2C)OCO4)cc(OC)c1O (stereo not given) | > 100 | > 94.3 | > 100 | 20.2 | 98.9 | 46.4 | 26 | > 60 | > 100 | > 100 |
| CCC(CCCCC1CC[C@H]2CC(=O)C[C@@H]12)OC (stereo not given in full) | > 100 | > 100 | > 100 | > 100 | > 100 | > 100 | > 100 | > 100 | > 100 | > 100 |
| Cn1c(=O)c2c(nc3sc4ncccc4c(=O)n32)n(C)c1=O | > 100 | > 100 | > 100 | > 100 | > 100 | > 100 | > 100 | > 100 | > 100 | > 100 |
| CC[C@]12C=CCN3CCC4(c5cc(N=Nc6ccc([N+](=O)[O-])cc6)c(OC)cc5N(C)[C@H]4[C@@](O)(C(=O)OC)[C@@H]1OC(C)=O)[C@@H]32 (stereo not given in full) | 43 | 8.62 | 50 | 28.1 | 43.6 | 77.8 | 35.1 | 40.5 | 33.2 | 46.1 |
| CC1(c2nc3cc(Cl)c(Cl)cc3[nH]2)CCC(C(=O)O)C(C)(C)O1 (stereo not given) | > 100 | > 100 | > 100 | > 100 | > 100 | > 100 | > 100 | > 100 | > 100 | > 100 |
| CC1(C)OC([C@H](O)CO)C([C@H]2NCCS2)O1 (stereo not given in full) | > 100 | > 100 | > 100 | > 100 | > 100 | > 100 | > 100 | > 100 | > 100 | > 100 |
| COc1cc(CNC(=O)CCCCCCCCCCSSCCCCCCCCCCC(=O)NCc2ccc(O)c(OC)c2)ccc1O | > 10 | > 10 | > 10 | > 10 | > 10 | > 10 | > 10 | > 10 | > 10 | > 10 |
| Nc1nc(Cl)cc(NCC2(CO)CCC(OCc3ccccc3)C2)n1 (stereo not given) | 77.3 | 37 | 45.1 | 86.8 | > 100 | 43.9 | 53.4 | 61 | 94.6 | > 100 |
| CC(=O)OCC(OC(C)=O)C(OC(C)=O)C(OC(C)=O)C(/C=N\Nc1nc2ccccc2c(=O)[nH]1)OC(C)=O (stereo not given) | > 100 | > 100 | > 100 | > 100 | > 100 | > 100 | > 100 | > 100 | > 100 | > 100 |
| CC1=C/C(=C(/c2ccc(O)c(C)c2)c2ccccc2C(=O)O)C=CC1=O | 38.5 | 34.8 | 32 | 43.6 | 38 | 52 | 35.8 | 32.5 | 36.6 | 46 |
